Key:
c-kit = target: T1, c-kit (Homo sapiens, UniProt P10721); assay: Inhibitory activity against c-kit autophosphorylation (MO7e cells, h-SCF); format: cell-based; conditions: for IC50: MO7e cells, h-SCF 50 ng/ml, read-out: c-kit IC50
T1 construct: MO7e (human megakaryocytic leukemia cell line) which had been arrested for 20 hr; endogenous in cells; host or cells: MO7e human megakaryocytic leukemia cell line
How it was run: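 In this cellular autophosphorylation assay, compound-treated MO7e cells (1 hr) were challenged with human stem cell factor at 50 ng/ml for 5 min; detection relied on PY-20 capture and anti-c-kit/HRP immunodetection at 450 nm.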

PDGF-Ra = target: T2, PDGF-Ra (Homo sapiens, UniProt P16234); assay: Inhibitory activity against PDGF-Ra phosphorylation by PDGF-AA stimulation using G292; format: cell-based; conditions: for IC50: Pharmacological Test Example 1, > means inhibition at indicated concentration not more than 50%, < and << not less than 50%, read-out: PDGF (E) IC50; for inhibition at 0.1 µM: G292, figure in parentheses in >100( ), at 100 nM, read-out: PDGF (E) inhibition (%) at 100 nM
T2 construct: host or cells: G-292 human osteosarcoma cells
How it was run: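 In G-292 osteosarcoma cells kept overnight in 0.1% FBS, compound exposure (1 hr, 37 °C) preceded PDGF-AA stimulation at 50 ng/ml for 5 min; receptor phosphotyrosine was then detected by PY-20 capture ELISA.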

T2 sequence (P16234 24-1089): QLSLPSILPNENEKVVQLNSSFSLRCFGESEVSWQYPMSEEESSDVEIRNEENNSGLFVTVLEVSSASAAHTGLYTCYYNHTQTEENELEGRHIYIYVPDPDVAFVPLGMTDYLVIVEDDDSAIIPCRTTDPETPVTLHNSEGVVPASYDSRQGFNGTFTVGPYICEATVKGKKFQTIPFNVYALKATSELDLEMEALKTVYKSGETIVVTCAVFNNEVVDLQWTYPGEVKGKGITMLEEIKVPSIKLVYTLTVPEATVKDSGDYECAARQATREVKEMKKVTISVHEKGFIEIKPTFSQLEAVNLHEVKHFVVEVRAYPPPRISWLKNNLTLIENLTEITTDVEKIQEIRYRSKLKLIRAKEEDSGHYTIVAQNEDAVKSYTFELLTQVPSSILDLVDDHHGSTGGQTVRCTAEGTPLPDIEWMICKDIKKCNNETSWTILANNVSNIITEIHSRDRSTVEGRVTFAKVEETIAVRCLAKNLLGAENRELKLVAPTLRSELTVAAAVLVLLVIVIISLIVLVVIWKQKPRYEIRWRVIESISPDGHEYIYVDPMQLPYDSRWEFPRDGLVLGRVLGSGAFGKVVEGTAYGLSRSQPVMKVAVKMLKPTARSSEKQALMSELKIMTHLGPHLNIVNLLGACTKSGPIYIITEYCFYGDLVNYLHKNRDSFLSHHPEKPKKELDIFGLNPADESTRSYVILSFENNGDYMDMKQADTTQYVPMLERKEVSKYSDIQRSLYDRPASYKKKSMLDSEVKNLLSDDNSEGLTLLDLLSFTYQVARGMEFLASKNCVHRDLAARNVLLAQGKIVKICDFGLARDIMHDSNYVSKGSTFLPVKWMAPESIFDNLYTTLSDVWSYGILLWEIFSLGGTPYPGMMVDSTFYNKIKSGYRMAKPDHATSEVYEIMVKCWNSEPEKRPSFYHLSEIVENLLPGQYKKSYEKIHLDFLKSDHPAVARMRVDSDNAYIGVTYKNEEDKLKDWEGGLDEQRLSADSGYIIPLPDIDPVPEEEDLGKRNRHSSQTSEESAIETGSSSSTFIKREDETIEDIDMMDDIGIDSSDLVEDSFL
T1 sequence (P10721 26-976): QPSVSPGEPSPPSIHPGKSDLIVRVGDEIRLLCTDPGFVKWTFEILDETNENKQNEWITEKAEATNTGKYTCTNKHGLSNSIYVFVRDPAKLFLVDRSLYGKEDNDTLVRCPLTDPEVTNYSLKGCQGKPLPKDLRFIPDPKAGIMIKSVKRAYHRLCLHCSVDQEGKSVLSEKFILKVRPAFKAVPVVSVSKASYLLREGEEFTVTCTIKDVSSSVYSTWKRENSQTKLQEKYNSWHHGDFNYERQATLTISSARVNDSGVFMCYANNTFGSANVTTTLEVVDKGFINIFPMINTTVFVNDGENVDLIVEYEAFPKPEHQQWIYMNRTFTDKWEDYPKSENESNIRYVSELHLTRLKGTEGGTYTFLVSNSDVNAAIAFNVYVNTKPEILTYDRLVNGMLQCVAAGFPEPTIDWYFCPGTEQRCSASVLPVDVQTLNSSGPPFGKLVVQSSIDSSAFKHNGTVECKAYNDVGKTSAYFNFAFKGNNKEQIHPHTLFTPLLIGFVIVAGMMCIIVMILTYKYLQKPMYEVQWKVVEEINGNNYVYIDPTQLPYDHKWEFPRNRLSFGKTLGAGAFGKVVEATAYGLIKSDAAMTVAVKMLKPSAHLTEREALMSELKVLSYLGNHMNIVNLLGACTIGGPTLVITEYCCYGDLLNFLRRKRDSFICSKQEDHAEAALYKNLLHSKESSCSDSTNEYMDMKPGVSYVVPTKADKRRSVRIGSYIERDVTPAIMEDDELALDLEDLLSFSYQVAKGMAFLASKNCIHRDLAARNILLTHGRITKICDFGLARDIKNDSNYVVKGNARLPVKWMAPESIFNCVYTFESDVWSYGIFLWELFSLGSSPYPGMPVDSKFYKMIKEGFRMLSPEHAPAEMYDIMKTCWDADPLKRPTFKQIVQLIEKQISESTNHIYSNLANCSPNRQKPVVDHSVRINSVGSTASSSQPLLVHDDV

| Structure (SMILES) | IC50 (c-kit) [nM] | IC50 (PDGF-Ra) [nM] | inhibition at 0.1 µM (PDGF-Ra) [%] | inhibition at 1 µM (c-kit; Mo7e, figure in parentheses in −( ), at 1000 nM) [%] |
| --- | --- | --- | --- | --- |
| COc1cc2nccc(Oc3ccc(NC(=O)OCCCOc4ccccc4Cl)c(C)c3C)c2cc1OC [Example 17, 3-(2-Chlorophenoxy)propyl N-{4-[(6,7-dimethoxy-4-quinolyl)oxy]-2,3-dimethylphenyl}carbamate] | 57 | < 10 | – | – |
| COc1cc2nccc(Oc3cc(C)c(NC(=O)OCCCOc4ccccc4Cl)cc3C)c2cc1OC [Example 18, 3-(2-Chlorophenoxy)propyl N-{4-[(6,7-dimethoxy-4-quinolyl)oxy]-2,5-dimethylphenyl}carbamate] | 93 | 22 | – | – |
| COc1cc2nccc(Oc3ccc(NC(=O)OCc4ccc(C(F)(F)F)cc4)cc3)c2cc1OC [Example 21, 4-(Trifluoromethyl)benzyl N-{4-[(6,7-dimethoxy-4-quinolyl)oxy]phenyl}carbamate] | 135 | < 10 | – | – |
| COc1cc2nccc(Oc3ccc(NC(=O)OCc4ccc(C(F)(F)F)cc4)c(C)c3C)c2cc1OC [Example 22, 4-(Trifluoromethyl)benzyl N-{4-[(6,7-dimethoxy-4-quinolyl)oxy]-2,3-dimethylphenyl}carbamate] | 186 | < 10 | – | – |
| COc1cc2nccc(Oc3cc(C)c(NC(=O)OCc4ccc(C(F)(F)F)cc4)cc3C)c2cc1OC [Example 23, 4-(Trifluoromethyl)benzyl N-{4-[(6,7-dimethoxy-4-quinolyl)oxy]-2,5-dimethylphenyl}carbamate] | 475 | < 10 | – | – |
| COc1cc2ncnc(Oc3ccc(NC(=O)OCc4ccc(C(F)(F)F)cc4)c(Cl)c3)c2cc1OC [Example 25, 4-(Trifluoromethyl)benzyl N-{2-chloro-4-[(6,7-dimethoxy-4-quinazolinyl)oxy]phenyl}carbamate] | 566 | < 10 | – | – |
| COc1cc2nccc(Oc3cc(C)c(NC(=O)OCCCOc4ccc(Cl)cc4)cc3C)c2cc1OC [Example 29, 3-(4-Chlorophenoxy)propyl N-{4-[(6,7-dimethoxy-4-quinolyl)oxy]-2,5-dimethylphenyl}carbamate] | 121 | 27 | – | – |
| COc1ccc(C(C)OC(=O)Nc2ccc(Oc3ccnc4cc(OC)c(OC)cc34)cc2)cc1 (stereo not drawn) [Example 32, 1-(4-Methoxyphenyl)ethyl N-{4-[(6,7-dimethoxy-4-quinolyl)oxy]phenyl}carbamate] | 227 | 16 | – | – |
| COc1ccc(C(C)OC(=O)Nc2ccc(Oc3ccnc4cc(OC)c(OC)cc34)c(C)c2C)cc1 (stereo not drawn) [Example 33, 1-(4-Methoxyphenyl)ethyl N-{4-[(6,7-dimethoxy-4-quinolyl)oxy]-2,3-dimethylphenyl}carbamate] | 362 | 23 | – | – |
| COc1ccc(C(C)OC(=O)Nc2cc(C)c(Oc3ccnc4cc(OC)c(OC)cc34)cc2C)cc1 (stereo not drawn) [Example 34, 1-(4-Methoxyphenyl)ethyl N-{4-[(6,7-dimethoxy-4-quinolyl)oxy]-2,5-dimethylphenyl}carbamate] | 800 | > 100 | 45 | – |
| COc1ccc(C(C)OC(=O)Nc2ccc(Oc3ncnc4cc(OC)c(OC)cc34)cc2Cl)cc1 (stereo not drawn) [Example 36, 1-(4-Methoxyphenyl)ethyl N-{2-chloro-4-[(6,7-dimethoxy-4-quinazolinyl)oxy]phenyl}carbamate] | – | > 100 | 34 | 19 |
| COc1ccc(OCCCOC(=O)Nc2ccc(Oc3ccnc4cc(OC)c(OC)cc34)c(C)c2C)cc1 [Example 43, 3-(4-Methoxyphenoxy)propyl N-{4-[(6,7-dimethoxy-4-quinolyl)oxy]-2,3-dimethylphenyl}carbamate] | 158 | < 10 | – | – |
| COc1ccc(OCCCOC(=O)Nc2cc(C)c(Oc3ccnc4cc(OC)c(OC)cc34)cc2C)cc1 [Example 44, 3-(4-Methoxyphenoxy)propyl N-{4-[(6,7-dimethoxy-4-quinolyl)oxy]-2,5-dimethylphenyl}carbamate] | 328 | 19 | – | – |
| COc1cccc(OCCCOC(=O)Nc2ccc(Oc3ccnc4cc(OC)c(OC)cc34)c(C)c2C)c1 [Example 48, 3-(3-Methoxyphenoxy)propyl N-{4-[(6,7-dimethoxy-4-quinolyl)oxy]-2,3-dimethylphenyl}carbamate] | 162 | < 10 | – | – |

Next, values leading:

| IC50 (c-kit) [nM] | IC50 (PDGF-Ra) [nM] | inhibition at 0.1 µM (PDGF-Ra) [%] | inhibition at 1 µM (c-kit; Mo7e, figure in parentheses in −( ), at 1000 nM) [%] | Structure (SMILES) |
| --- | --- | --- | --- | --- |
| 41 | < 10 | – | – | COc1cc2ncnc(Oc3ccc(NC(=O)OCCCOc4ccccc4Cl)cc3)c2cc1OC [Example 19, 3-(2-Chlorophenoxy)propyl N-{4-[(6,7-dimethoxy-4-quinazolinyl)oxy]phenyl}carbamate] |
| 109 | < 10 | – | – | COc1cc2ncnc(Oc3ccc(NC(=O)OCCCOc4ccccc4Cl)c(Cl)c3)c2cc1OC [Example 20, 3-(2-Chlorophenoxy)propyl N-{2-chloro-4-[(6,7-dimethoxy-4-quinazolinyl)oxy]phenyl}carbamate] |
| 129 | < 10 | – | – | COc1cc2ncnc(Oc3ccc(NC(=O)OCc4ccc(C(F)(F)F)cc4)cc3)c2cc1OC [Example 24, 4-(Trifluoromethyl)benzyl N-{4-[(6,7-dimethoxy-4-quinazolinyl)oxy]phenyl}carbamate] |
| 44 | < 10 | – | – | COc1cc2nccc(Oc3ccc(NC(=O)OCCCOc4ccccc4Cl)cc3)c2cc1OC [Example 26, 3-(2-Chlorophenoxy)propyl N-{4-[(6,7-dimethoxy-4-quinolyl)oxy]phenyl}carbamate] |
| 76 | < 10 | – | – | COc1cc2nccc(Oc3ccc(NC(=O)OCCCOc4ccc(Cl)cc4)cc3)c2cc1OC [Example 27, 3-(4-Chlorophenoxy)propyl N-{4-[(6,7-dimethoxy-4-quinolyl)oxy]phenyl}carbamate] |
| 118 | < 10 | – | – | COc1cc2nccc(Oc3ccc(NC(=O)OCCCOc4ccc(Cl)cc4)c(C)c3C)c2cc1OC [Example 28, 3-(4-Chlorophenoxy)propyl N-{4-[(6,7-dimethoxy-4-quinolyl)oxy]-2,3-dimethylphenyl}carbamate] |
| < 30 | < 10 | – | – | COc1cc2ncnc(Oc3ccc(NC(=O)OCCCOc4ccc(Cl)cc4)cc3)c2cc1OC [Example 30, 3-(4-Chlorophenoxy)propyl N-{4-[(6,7-dimethoxy-4-quinazolinyl)oxy]phenyl}carbamate] |
| 221 | < 10 | – | – | COc1cc2ncnc(Oc3ccc(NC(=O)OCCCOc4ccc(Cl)cc4)c(Cl)c3)c2cc1OC [Example 31, 3-(4-Chlorophenoxy)propyl N-{2-chloro-4-[(6,7-dimethoxy-4-quinazolinyl)oxy]phenyl}carbamate] |
| 342 | < 10 | – | – | COc1ccc(C(C)OC(=O)Nc2ccc(Oc3ncnc4cc(OC)c(OC)cc34)cc2)cc1 (stereo not drawn) [Example 35, 1-(4-Methoxyphenyl)ethyl N-{4-[(6,7-dimethoxy-4-quinazolinyl)oxy]phenyl}carbamate] |
| < 30 | < 10 | – | – | COc1cc2nccc(Oc3ccc(NC(=O)OCCCSc4ccc(C)cc4)cc3)c2cc1OC [Example 37, 3-[(4-Methylphenyl)sulfanyl)propyl N-{4-[(6,7-dimethoxy-4-quinolyl)oxy]phenyl}carbamate] |
| 33 | < 10 | – | – | COc1cc2nccc(Oc3ccc(NC(=O)OCCCSc4ccc(C)cc4)c(C)c3C)c2cc1OC [Example 38] |
| 56 | < 10 | – | – | COc1cc2nccc(Oc3cc(C)c(NC(=O)OCCCSc4ccc(C)cc4)cc3C)c2cc1OC [Example 39, 3-[(4-Methylphenyl)sulfanyl)propyl N-{4-[(6,7-dimethoxy-4-quinolyl)oxy]-2,5-dimethylphenyl}-carbamate] |
| 55 | < 10 | – | – | COc1cc2ncnc(Oc3ccc(NC(=O)OCCCSc4ccc(C)cc4)cc3)c2cc1OC [Example 40, 3-[(4-Methylphenyl)sulfanyl)propyl N-{4-[(6,7-dimethoxy-4-quinazolinyl)oxy]phenyl}carbamate] |
| 185 | < 10 | – | – | COc1cc2ncnc(Oc3ccc(NC(=O)OCCCSc4ccc(C)cc4)c(Cl)c3)c2cc1OC [Example 41, 3-[(4-Methylphenyl)sulfanyl)propyl N-{2-chloro-4-[(6,7-dimethoxy-4-quinazolinyl)oxy]phenyl}-carbamate] |
| 73 | < 10 | – | – | COc1ccc(OCCCOC(=O)Nc2ccc(Oc3ccnc4cc(OC)c(OC)cc34)cc2)cc1 [Example 42, 3-(4-Methoxyphenoxy)propyl N-{4-[(6,7-dimethoxy-4-quinolyl)oxy]phenyl}carbamate] |
| 91 | < 10 | – | – | COc1ccc(OCCCOC(=O)Nc2ccc(Oc3ncnc4cc(OC)c(OC)cc34)cc2)cc1 [Example 45, 3-(4-Methoxyphenoxy)propyl N-{4-[(6,7-dimethoxy-4-quinazolinyl)oxy]phenyl}carbamate] |
| 388 | 22 | – | – | COc1ccc(OCCCOC(=O)Nc2ccc(Oc3ncnc4cc(OC)c(OC)cc34)cc2Cl)cc1 [Example 46, 3-(4-Methoxyphenoxy)propyl N-{2-chloro-4-[(6,7-dimethoxy-4-quinazolinyl)oxy]phenyl}carbamate] |
| 50 | < 10 | – | – | COc1cccc(OCCCOC(=O)Nc2ccc(Oc3ncnc4cc(OC)c(OC)cc34)cc2)c1 [Example 50, 3-(3-Methoxyphenoxy)propyl N-{4-[(6,7-dimethoxy-4-quinazolinyl)oxy]phenyl}carbamate] |

From patent publication US7135466B2 (Kirin Beer Kabushiki Kaisha, priority 1999, dated 2006)
